Literature values in article PMC6862717 (ACS chemical neuroscience, 2018).

Key:
[1] = tested on: animal model of neuropathic pain
[2] = tested on: transgenic animal model of AD

| Molecule | mechanical hypersensitivity [1] | efficacy in a transgenic animal model of AD [2] | neuroprotective properties in nematodes (nematodes) | cognitive performance in wild-type mice (wild-type mice) |
| --- | --- | --- | --- | --- |
| UKH-1114 | relieves mechanical hypersensitivity | – | – | – |
| CN1CCN(c2ccc3c(c2)[C@H]2C[C@@H]3CCN2C(=O)OCc2ccccc2)CC1 (racemic) [SAS-0132] | – | efficacious | shows neuroprotective properties | improves cognitive performance |
